Results on one molecule are retold here after patent publication EP4663640A1 (Shanghai Institute of Materia Medica, Chinese Academy of …, priority 2023, dated 2024).

Series [1] can be described thus: Tissue distribution in rats. It counts as in vivo, SD rats. The following applies: 2 hours after oral administration of 10 mg/kg, brain, heart, liver, spleen, lung, kidney, colon, muscle versus plasma (Figure 2). On the procedure:
(§1) Intravenous (IV) administration: the drug to be tested was dissolved in DMSO/Solutol/normal saline at a ratio of 5:5:90 (v/v/v), with a concentration of 0.2 mg/mL, and the administration volume was 5 mL/kg. Oral (PO) administration: the drug to be tested was dissolved in DMSO/Tween 80/0.5% CMC-Na solution at a ratio of 2:2:96 (v/v/v), with a concentration of 1 mg/mL, and the administration volume was 10 mL/kg.
Male SD rats weighing 180-280g, 3 rats in each group, fasted for 12h before the experiment, had free access to water, and ate uniformly 4 h after administration. In the IV group, the rat tail vein was administered with a dose of 1mg/kg, and blood was collected at 0.083, 0.25, 0.5, 1.0, 2.0, 4.0, 6.0, 8.0, 12 and 24 h after administration. PO group, administered by gavage at a dose of 10 mg/kg, blood was collected at 0.25, 0.5, 1.0, 2.0, 4.0, 6.0, 8.0, 12 and 24 h after administration. At the above time points, 0.2 mL of blood was collected from the jugular vein and placed in an anticoagulant tube containing EDTA-K2. […] The drug concentration in the samples was quantified using LC-MS/MS method. Relevant pharmacokinetic parameters Tmax, Cmax, AUC0-∞, t1/2, etc. were calculated using WinNonlin software.

The nature of series [2]: Liver microsome stability test, human. For orientation: Liver microsomes are vesicles of endoplasmic reticulum, rich in cytochrome P450 enzymes.
Series [3] concerns mice. The experiment in a line: Tail suspension test (antidepression). It counts as in vivo. As for the experimental part:
The drug to be tested was dissolved in DMSO: Tween 80: distilled water at a ratio of 2:2:96 (v/v/v), and then administered to mice by gavage at a volume of 10 mL/kg. […] The blank control group was only given 10 mL/kg of the above solvent.
The mouse tail suspension test (TST) is a widely used experimental method to evaluate the effectiveness of antidepressants and other psychotropic drugs. The principle of the test is to suspend a mouse by its tail and observe its behavior. The mouse will initially struggle to escape, but when it realizes that escape is impossible, it will eventually stop struggling and enter a state of immobility that indicates despair. This immobility behavior is used to measure depression-like states, and the severity of the condition is assessed by recording the duration of immobility.
The same mouse was subjected to the tail suspension test immediately after the marble burying test. A tail suspension test box was built using a black frosted acrylic board, 55 cm high, 15 cm long, and 11.5 cm wide. The three sides and top of the box were frosted blackboards, and one side was used for video recording. The mouse tail was wrapped with yellow tape 2 cm away from the tip of the tail, and the mouse was hung upside down in the middle of the top acrylic board. The tip of the mouse tail was about 3 cm away from the acrylic board, and the body was suspended and could not touch the surrounding board wall. The test time for each mouse lasted for 6 minutes, and the immobility time of the mouse during this time was counted. After the experiment, the mouse was returned to the cage, and the inside of the box and the table were wiped with alcohol to remove the smell of the previous mouse to prevent affecting the next mouse experiment. The criteria for immobility in the tail suspension test: stop struggling, no flexion or twisting of the body, no swinging of the hind limbs, and slight swinging of the forelimbs and head were also counted as immobility time.

The nature of series [4]: Pharmacokinetics in rats (oral and intravenous). Type of series: in vivo, SD rats. On the procedure: as §1
Male SD rats weighing 180-280g, 3 rats in each group, fasted for 12h before the experiment, had free access to water, and ate uniformly 4 h after administration. In the IV group, the rat tail vein was administered with a dose of 1mg/kg, and blood was collected at 0.083, 0.25, 0.5, 1.0, 2.0, 4.0, 6.0, 8.0, 12 and 24 h after administration. PO group, administered by gavage at a dose of 10 mg/kg, blood was collected at 0.25, 0.5, 1.0, 2.0, 4.0, 6.0, 8.0, 12 and 24 h after administration. At the above time points, 0.2 mL of blood was collected from the jugular vein and placed in an anticoagulant tube containing EDTA-K2. After the whole blood was collected, it was temporarily stored in an ice water bath, centrifuged at 11000 rpm for 5 min within 30min, the plasma was separated, and then frozen in a -70 °C refrigerator for testing. Tissue distribution group, oral administration, dose of 10mg/kg, 2h after drug administration, rats were anesthetized, bled through the abdominal aorta, and immediately dissected to collect brain, heart, liver, spleen, lung, kidney, colon, muscle. Part of the whole blood was collected and operated in an ice bath. The whole blood was centrifuged at 11000 rpm for 5 min within 30 min, and plasma (about 200 µL) was separated. After the tissue and plasma were collected, they were stored below -60 °C for testing. After each tissue was accurately weighed, the homogenizing reagent acetonitrile-water (1:1, v/v) was added for homogenization, wherein the raion of tissue to homogenizing reagent was 1:4 (g:mL). After homogenization, the samples were sonicated for 10 min, and the supernatant was taken after centrifugation for detection. The drug concentration in the samples was quantified using LC-MS/MS method. Relevant pharmacokinetic parameters Tmax, Cmax, AUC0-∞, t1/2, etc. were calculated using WinNonlin software.

Series [5] can be described thus: Preliminary pharmacokinetic evaluation, plasma drug concentration after oral administration to mice. Type of series: in vivo, ICR mice. The following applies: male, ICR, mouse, oral 10 mg/kg, Mean ± SD, N = 3. On the procedure: The test compound was prepared according to the following solvent: an aqueous solution of DMSO/Tween 80/0.5% (m/v) CMC-Na at a ratio of 2:2:96 (v/v/v), with a drug concentration of 1 mg/mL. Then, the test compound was gavaged to mice at a dosage of 10 mL/kg, with a dose of 10 mg/kg. Each compound was administered to 3 mice. At 1h and 4h after administration, about 50 µL of blood was collected from the orbital venous plexus of the mouse and placed in a centrifuge tube containing EDTA-K2 anticoagulant.

Where [6] appears, read: male, SD, rat, plasma, 1 mg/kg (IV).
[7] abbreviates: male, SD, rat, plasma, 10 mg/kg (PO).

Each structure is given as a SMILES string. Values joined by “and” are separate entries in the source; they are usually repeats but may differ in a detail not shown here. Equal values may be shown once.

As for `Cn1c(=O)n(CCCO)c(=O)c2c1nc(C1(F)CCC(F)(F)CC1)n2Cc1ccc(F)c(Cl)c1` [Example E68, 7-(3-chloro-4-fluorobenzyl)-1-(3-hydroxypropyl)-3-methyl-8-(1,4,4-trifluorocyclohexyl)-3,7-dihydro-1H-purine-2,6-dione], the “concentration in each tissue” value in series [1] is recorded as “significantly higher than that in plasma”. For the same molecule, in series [2] (Human liver microsomes), the “Stability Evaluation” value is listed as “Medium (30%<MF%<70%, medium metabolic stability)”. For the same molecule, the MF % in series [2] (Human liver microsomes, metabolic bioavailability) was determined as 55.2%. Further, the half-life at 1 µM in series [2] (human, liver microsomes, pH 7.4) came out at 2.2 h. Besides, the “immobility time of mice in the tail suspension box” value in series [3] (oral 0.03 mg/kg, test with reduced dosage (Figure 6), comparable to 0.1 mg/kg of HC-070) is recorded as “significantly reduce”. Further, the “immobility time of mice” value in series [3] (oral 0.1, 0.3, 1 mg/kg, before versus after administration (Figure 4)) was “significantly reduced”. Also, the t1/2 in series [4] (10 mg/kg (PO), 10 mg/kg) was 4.88 ± 0.80 h. In addition, in series [4] (10 mg/kg (PO), oral bioavailability, 10 mg/kg), the F was 62.2% and 62.2 ± 15.9%. In series [4] (setting [6]), this molecule gave an AUC(0-inf) of 1170 ± 406 ng·h/mL, a Cmax of 772 ± 92 ng/mL, a clearance of 15.4 ± 4.98 mL/min/kg and a half-life of 3.77 ± 2.14 h. Besides, in series [4] (male, SD, rat, plasma, 1 mg/kg (IV), read-out: VSS), the Vd is 2.94 ± 0.79 L/kg. For the same molecule, in series [4] (setting [7]), the AUC(0-inf) was found to be 7220 ± 1850 ng·h/mL, the time to peak (Tmax) was 0.5 h and the half-life was 4.88 h. Besides, the highest level in series [4] (male, rat, plasma, 10 mg/kg (PO), Mean±SD, N=3) (Cmax) was 1600 ng/mL. In addition, the concentration at 1 h in series [5] (1h) turned out to be 2700 ± 54 ng/mL. In series [5] (4h), this molecule showed a concentration at 4 h of 1890 ± 213 ng/mL.

Broadly, the half-life is how long it takes for the measured level to halve. A higher half-life goes with slow loss. One may read the AUC(0-inf) as total exposure, with the tail of the curve extrapolated. High values mean more exposure, low ones less exposure. A word on the Cmax: it is the highest concentration seen after dosing. One may read the Tmax as the time from dosing to the highest level.
